Source: the supplement of paper PMC10307832

How the values were obtained:
Assay in all cases: relative viability (nuclei count vs DMSO), 5 days (fraction); higher = more cells survive
[1] = compound: C1CSC2=C(C(=O)N1)SC3=C2C=C(C=C3)O [kb NB 142-70] + Nc1ncn([C@H]2C[C@H](O)[C@@H](CO)O2)c(=O)n1 [Decitabine] (partner 2 µM)
Method in brief: (§1)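 Nuclei were stained with Hoechst during a one-step fixation (final 0.05% Triton X-100, 1% formaldehyde, 1 ug/ml Hoechst) carried out 5 days after dosing, then counted on 4× images. The cells, lung cancer lines in 1536-well plates, had been dosed by pin tool the day after seeding with one drug alone or a fixed anchor-drug dose plus five library-drug doses (not always all listed) in √10 steps. Relative viability is the nuclei count in treated wells divided by that in vehicle wells, and each value is the median of duplicate plates.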

[2] = compound: NCC(=O)Nc1ccc(-n2nc(C(F)(F)F)cc2-c2ccc3c(ccc4ccccc43)c2)cc1 + C[C@@H](Oc1cc(-c2cnn(C3CCNCC3)c2)cnc1N)c1c(Cl)ccc(F)c1Cl [Crizotinib] (partner 1 µM)
Method in brief: as §1

[3] = compound: NCC(=O)Nc1ccc(-n2nc(C(F)(F)F)cc2-c2ccc3c(ccc4ccccc43)c2)cc1 + COc1cccc2cc(-c3nc([C@H]4CC[C@H](C(=O)O)CC4)n4ncnc(N)c34)[nH]c12 [OSI-027] (partner 0.5 µM)
Method in brief: as §1

[4] = compound: NCC(=O)Nc1ccc(-n2nc(C(F)(F)F)cc2-c2ccc3c(ccc4ccccc43)c2)cc1 + O=C(c1cc(Cc2n[nH]c(=O)c3ccccc23)ccc1F)N1CCN(C(=O)C2CC2)CC1 [Olaparib] (partner 8 µM)
Method in brief: as §1

| Cell Line | relative viability ([1]; first compound 0.1 µM) | relative viability ([1]; first compound 1 µM) | relative viability ([1]; first compound 3.162 µM) | relative viability ([2]; first compound 0.02 µM) | relative viability ([2]; first compound 0.06325 µM) | relative viability ([2]; first compound 0.2 µM) | relative viability ([2]; first compound 0.6325 µM) | relative viability ([2]; first compound 2 µM) | relative viability ([3]; first compound 0.02 µM) | relative viability ([3]; first compound 0.06325 µM) | relative viability ([3]; first compound 0.2 µM) | relative viability ([3]; first compound 0.6325 µM) | relative viability ([3]; first compound 2 µM) | relative viability ([4]; first compound 0.02 µM) | relative viability ([4]; first compound 0.06325 µM) | relative viability ([4]; first compound 0.2 µM) | relative viability ([4]; first compound 0.6325 µM) | relative viability ([4]; first compound 2 µM) |
| --- | --- | --- | --- | --- | --- | --- | --- | --- | --- | --- | --- | --- | --- | --- | --- | --- | --- | --- |
| NCI-H1437 | 0.578 | 0.55 | 0.536 | 0.946 | 0.85 | 0.964 | 0.94 | 0.894 | 0.889 | 0.898 | 0.877 | 0.881 | 0.951 | 0.623 | 0.62 | 0.688 | 0.651 | 0.664 |
| LU99A | 1.09 | 0.9 | 0.708 | 0.547 | 0.654 | 0.593 | 0.554 | 0.573 | 0.285 | 0.29 | 0.303 | 0.272 | 0.295 | 0.284 | 0.289 | 0.261 | 0.263 | 0.322 |
| HCC-827 | 0.31 | 0.288 | 0.274 | 0.988 | 1.04 | 0.966 | 0.929 | 0.937 | 0.771 | 0.756 | 0.751 | 0.745 | 0.734 | 0.916 | 0.642 | 0.61 | 0.595 | 0.767 |
| LK-2 | 0.37 | 0.282 | 0.195 | 0.247 | 0.234 | 0.232 | 0.236 | 0.244 | 0.182 | 0.207 | 0.21 | 0.246 | 0.174 | 0.758 | 0.78 | 0.799 | 0.666 | 0.671 |
| HCC-366 | 0.366 | 0.407 | 0.415 | 0.558 | 0.589 | 0.55 | 0.736 | 0.456 | 0.829 | 1.08 | 1.09 | 0.848 | 0.816 | 0.351 | 0.406 | 0.345 | 0.387 | 0.349 |
